Assay results from ChEMBL document CHEMBL1135183, “Design and synthesis of C-8 linked pyrrolobenzodiazepine-naphthalimide hybrids as anti-tumour agents” (2002).

Legend:
Assay type in all cases: functional
[1] = tested on: Panel breast (Carcinoma cell lines); experiment: Concentration of compound causing 50% lethality in Breast cell lines was determined; conditions: Homo sapiens, read-out: Log LC50 (the source's name) (converted)
[2] = tested on: Panel ovarian (Carcinoma cell lines); experiment: Concentration of compound causing 50% lethality in Ovarian cell lines was determined; conditions: Homo sapiens, read-out: Log LC50 (the source's name) (converted)
[3] = tested on: Panel CNS (Carcinoma cell lines); experiment: Concentration of compound causing 50% lethality in CNS cell lines was determined; conditions: Homo sapiens, read-out: Log LC50 (the source's name) (converted)
leukaemia cell line = experiment: Concentration of compound causing 50% lethality in Leukemia cell lines was determined; conditions: Homo sapiens, read-out: Log LC50 (the source's name) (converted)
[4] = tested on: Panel renal (Carcinoma cell lines); experiment: Concentration of compound causing 50% lethality in Renal cell lines was determined; conditions: Homo sapiens
NSCLC = experiment: Concentration of compound causing 50% lethality in Non-small-cell lung cell lines was determined; conditions: Homo sapiens, read-out: Log LC50 (the source's name) (converted)
[5] = tested on: Panel prostate (Carcinoma cell lines); experiment: Concentration of compound causing 50% lethality in Prostate cell lines was determined; conditions: Homo sapiens, read-out: Log LC50 (the source's name) (converted)
[6] = tested on: Panel melanoma (Carcinoma cell lines); experiment: Concentration of compound causing 50% lethality in Melanoma cell lines was determined; conditions: Homo sapiens, read-out: Log LC50 (the source's name) (converted)
[7] = tested on: Panel colon (Carcinoma cell lines); experiment: Concentration of compound causing 50% lethality in Colon cell lines was determined; conditions: Homo sapiens

COc1cc2c(cc1OCCCCCCCN1C(=O)c3cccc4cccc(c34)C1=O)N=C[C@@H]1CCCN1C2=O
CC50 [1]: 43.7 µM | CC50 [2]: 87.1 µM | CC50 [3]: > 100 µM | CC50 (leukaemia cell line): > 100 µM | LC50 (concentration causing 50% cell lethality) [4]: 93.3 µM | CC50 (NSCLC): 45.7 µM | CC50 [5]: > 100 µM | CC50 [6]: 37.2 µM | LC50 [7]: 38.9 µM

COc1cc2c(cc1OCCCCCN1C(=O)c3cccc4cccc(c34)C1=O)N=C[C@@H]1CCCN1C2=O
CC50 [1]: 60.3 µM | CC50 [2]: 81.3 µM | CC50 [3]: 72.4 µM | CC50 (leukaemia cell line): 72.4 µM | LC50 (concentration causing 50% cell lethality) [4]: 30.9 µM | CC50 (NSCLC): 69.2 µM | CC50 [5]: 61.7 µM | CC50 [6]: 58.9 µM | LC50 [7]: 45.7 µM

COc1cc2c(cc1OCCCN1C(=O)c3cccc4cccc(c34)C1=O)N=C[C@@H]1CCCN1C2=O
CC50 [1]: > 100 µM | CC50 [2]: 97.7 µM | CC50 [3]: > 100 µM | CC50 (leukaemia cell line): 77.6 µM | LC50 (concentration causing 50% cell lethality) [4]: 91.2 µM | CC50 (NSCLC): 89.1 µM | CC50 [5]: > 100 µM | CC50 [6]: 97.7 µM | LC50 [7]: 97.7 µM

COc1cc2c(cc1OCCCCCCCCCCCCCCCCCN1C(=O)c3cccc4cccc(c34)C1=O)N=C[C@@H]1CCCN1C2=O
CC50 [1]: 85.1 µM | CC50 [2]: 77.6 µM | CC50 [3]: 51.3 µM | CC50 (leukaemia cell line): 61.7 µM | LC50 (concentration causing 50% cell lethality) [4]: 81.3 µM | CC50 (NSCLC): 83.2 µM | CC50 [5]: 66.1 µM | CC50 [6]: 64.6 µM | LC50 [7]: 75.9 µM

COc1cc2c(cc1OCCCCCCCCCCCCCN1C(=O)c3cccc4cccc(c34)C1=O)N=C[C@@H]1CCCN1C2=O
CC50 [1]: 95.5 µM | CC50 [2]: 85.1 µM | CC50 [3]: 77.6 µM | CC50 (leukaemia cell line): 77.6 µM | LC50 (concentration causing 50% cell lethality) [4]: 95.5 µM | CC50 (NSCLC): > 100 µM | CC50 [5]: 93.3 µM | CC50 [6]: 81.3 µM | LC50 [7]: 83.2 µM
